What was measured:
[1] = biological target: Cyclin-dependent kinase 2 (Homo sapiens, UniProt P24941)
Description: Inhibition of CDK2/Cyclin A by radiometric assay

in vivo = details: BALB/c, mouse, plasma, iv, 0.2 mg/kg
[2] = biological target: Cyclin-dependent kinase 1/cyclin B1 (Homo sapiens, UniProt P06493)
Description: Inhibition of CDK1/Cyclin B by radiometric assay

HCT-116 [3] = experiment: Antitumor activity against human HCT116 cells xenografted into SCID mouse at […], ip bid for 10 days; assay type: functional; details: HCT-116, ip, 240 h, dose 4.6 mg/kg, route intraperitoneal
HCT-116 [4] = experiment: Antitumor activity against human HCT116 cells xenografted into SCID mouse at 9.1 mg/kg, ip bid for 10 days; assay type: functional; details: HCT-116, ip, 240 h, route intraperitoneal
HCT-116 [5] = experiment: Antitumor activity against human HCT116 cells xenografted into SCID mouse at 18.2 mg/kg, ip bid for 10 days; assay type: functional; details: HCT-116, ip, 240 h, route intraperitoneal
Mus musculus = species on record: Mus musculus; details: in vivo, ip, 10 mg/kg
in vitro = details: mouse, plasma
Description: Protein binding in mouse plasma at 1 ug/ml after 30 mins

HCT-116 [6] = details: dose 9.1 mg/kg; route intraperitoneal
Description: Antitumor activity against human HCT116 cells xenografted into SCID mouse at 9.1 mg/kg, ip bid administered QDx10 schedule relative to control

HCT-116 [7] = experiment: Antitumor activity against human HCT116 cells xenografted into BALB/c mouse at 10 mg/kg, ip bid administered QDx9 schedule relative to control; assay type: functional; details: route intraperitoneal

Sequence of Cyclin-dependent kinase 1/cyclin B1 (P06493 whole entry): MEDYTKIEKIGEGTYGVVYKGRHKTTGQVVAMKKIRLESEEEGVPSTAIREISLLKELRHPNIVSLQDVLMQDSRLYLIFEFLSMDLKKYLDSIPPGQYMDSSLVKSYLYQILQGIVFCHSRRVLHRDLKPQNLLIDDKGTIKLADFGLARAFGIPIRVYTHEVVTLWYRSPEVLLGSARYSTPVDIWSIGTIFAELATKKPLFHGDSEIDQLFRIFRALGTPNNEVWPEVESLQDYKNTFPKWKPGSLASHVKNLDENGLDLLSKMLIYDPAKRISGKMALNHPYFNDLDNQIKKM
Sequence of Cyclin-dependent kinase 1/cyclin B1 (P14635 whole entry, further chain): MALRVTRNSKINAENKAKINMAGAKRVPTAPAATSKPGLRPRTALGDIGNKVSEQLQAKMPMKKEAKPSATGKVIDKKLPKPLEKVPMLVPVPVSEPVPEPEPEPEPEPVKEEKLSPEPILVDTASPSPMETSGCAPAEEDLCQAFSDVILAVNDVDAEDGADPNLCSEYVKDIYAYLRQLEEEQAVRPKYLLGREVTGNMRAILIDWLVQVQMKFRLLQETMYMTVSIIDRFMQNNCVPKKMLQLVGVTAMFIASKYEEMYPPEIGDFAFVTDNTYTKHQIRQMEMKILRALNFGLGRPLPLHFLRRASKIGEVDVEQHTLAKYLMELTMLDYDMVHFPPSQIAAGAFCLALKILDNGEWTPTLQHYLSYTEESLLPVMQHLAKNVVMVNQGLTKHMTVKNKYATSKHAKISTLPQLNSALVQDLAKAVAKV

O=C(CO)Nc1c[nH]nc1C(=O)Nc1ccc(F)cc1
IC50 [1]: 730 nM

O=C(NC1CCNCC1)c1n[nH]cc1NC(=O)c1c(F)cc(F)cc1F
clearance (in vivo): 71 mL/min/kg | IC50 [1]: 750 nM

Clc1cncc(Nc2ccccc2)n1
IC50 [1]: 7000 nM

O=C(NC1CCCCC1)c1n[nH]cc1NC(=O)c1c(F)cccc1F
IC50 [2]: 55 nM | clearance (in vivo): 65 mL/min/kg

O=C(N[C@H]1CC[C@H](O)CC1)c1n[nH]cc1NC(=O)c1c(F)cccc1F
IC50 [2]: 45 nM | clearance (in vivo): 42 mL/min/kg | IC50 [1]: 19 nM

O=C(NC1CCNCC1)c1n[nH]cc1NC(=O)c1c(F)cccc1F [listing 1 of 2 here]
inhibition in vivo at […] (HCT-116 [3]): 22% | inhibition in vivo at 9.1 mg/kg (HCT-116 [4]): 46% | inhibition in vivo at 18.2 mg/kg (HCT-116 [5]): 86%

O=C(NC1CCNCC1)c1n[nH]cc1NC(=O)c1c(F)cccc1F [listing 2 of 2 here]
AUC (Mus musculus): 3422 ng·h/g | fraction unbound at 0.5 h, 1 ug/ml (in vitro): 0.16 | clearance (in vivo): 43 mL/min/kg | T/C (HCT-116 [6]): 54%

c1ccc2[nH]c(-c3cc[nH]n3)nc2c1
IC50 [1]: 25000 nM

COc1cccc(F)c1C(=O)Nc1c[nH]nc1C(=O)NC1CCNCC1
T/C (HCT-116 [7]): 62% | AUC (Mus musculus): 3325 ng·h/g | fraction unbound at 0.5 h, 1 ug/ml (in vitro): 0.25 | clearance (in vivo): 38 mL/min/kg | IC50 [1]: 350 nM

O=C(NC1CCNCC1)c1n[nH]cc1NC(=O)c1c(F)cccc1Cl
clearance (in vivo): 56 mL/min/kg | IC50 [1]: 110 nM

Cl.O=C(N[C@H]1CCCNC1)c1n[nH]cc1NC(=O)c1c(F)cccc1F
IC50 [2]: 38 nM | clearance (in vivo): 48 mL/min/kg | IC50 [1]: 44 nM

Nc1c[nH]nc1C(=O)Nc1ccc(F)cc1
IC50 [1]: 85000 nM

N[C@H]1CC[C@H](NC(=O)c2n[nH]cc2NC(=O)c2c(F)cccc2F)CC1
IC50 [2]: 440 nM | clearance (in vivo): 63 mL/min/kg | IC50 [1]: 38 nM

O=C(Nc1ccccc1)c1n[nH]c2ccccc12
IC50 [1]: 3000 nM

O=C(NCC1CC1)c1n[nH]cc1NC(=O)c1c(F)cccc1F
clearance (in vivo): 66 mL/min/kg

O=C(Nc1ccc(F)cc1)c1n[nH]cc1NC(=O)c1c(F)cccc1F
IC50 [2]: 10 nM | clearance (in vivo): 40 mL/min/kg
